Test results from the supplement of paper PMC6045584.
± gives the standard deviation of the averaged measurements.

Legend:
[1] = compound: CCN(CC)CCNC(=O)c1c(C)[nH]c(/C=C2\C(=O)Nc3ccc(F)cc32)c1C [SUNITINIB]; test: surviving fraction relative to DMSO-only wells; higher = less growth inhibition; settings: exposure time: 5 days
Method in brief: (§1)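 A line counted only if its three screens reached replicate Pearson r >0.7 and median Z' >0.3. Tumour cells in log phase were seeded at 250–500 per well in 384-well plates and, after 24 hours, kept in continuous contact with inhibitors at 0.5, 1, 5, 10, 50, 100, 500 and 1000 nM for five days. Surviving fraction was taken from CellTiter-Glo luminescence relative to the median of DMSO-only wells.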

[2] = compound: COc1cc([C@@H]2c3cc4c(cc3[C@@H](O[C@@H]3O[C@@H]5CO[C@@H](C)O[C@H]5[C@H](O)[C@H]3O)[C@H]3COC(=O)[C@H]23)OCO4)cc(OC)c1O [ETOPOSIDE]; test: as above; settings: exposure time: 5 days
Method in brief: as §1

Row | Test System | surviving fraction ([1]; 0.5 nM) | surviving fraction ([1]; 1 nM) | surviving fraction ([1]; 50 nM) | surviving fraction ([1]; 100 nM) | surviving fraction ([1]; 500 nM) | surviving fraction ([1]; 1000 nM) | surviving fraction ([2]; 0.5 nM) | surviving fraction ([2]; 1 nM) | surviving fraction ([2]; 5 nM) | surviving fraction ([2]; 10 nM) | surviving fraction ([2]; 50 nM) | surviving fraction ([2]; 100 nM) | surviving fraction ([2]; 500 nM) | surviving fraction ([2]; 1000 nM) | surviving fraction ([1]; 5 nM) | surviving fraction ([1]; 10 nM)
1 | 22RV1 PROSTATE | 0.975 ± 0.028 | 0.952 ± 0.021 | 0.937 ± 0.1 | 0.932 ± 0.027 | 0.739 ± 0.049 | 0.41 ± 0.029 | 1.03 ± 0.084 | 1 ± 0.083 | 0.928 ± 0.059 | 0.939 ± 0.023 | 0.922 ± 0.046 | 0.747 ± 0.047 | 0.42 ± 0.034 | 0.345 ± 0.03 |  | 
2 | 93VU HEADNECK | 0.817 ± 0.07 | 0.819 ± 0.059 | 1.11 ± 0.055 | 0.93 ± 0.057 | 0.261 ± 0.026 | 0.158 ± 0.025 | 1 ± 0.042 | 1.07 ± 0.033 | 1.11 ± 0.037 | 1.05 ± 0.15 | 1.03 ± 0.12 | 1.14 ± 0.12 | 0.953 ± 0.054 | 0.896 ± 0.021 | 0.85 ± 0.03 | 0.823 ± 0.078
3 | 143B BONE | 0.982 ± 0.044 | 1.01 ± 0.026 | 1.01 ± 0.019 | 1.008 ± 0.0042 | 0.824 ± 0.067 | 0.461 ± 0.055 | 0.981 ± 0.021 | 0.993 | 1.01 ± 0.016 | 1.03 ± 0.012 | 1.01 ± 0.012 | 0.979 ± 0.079 | 0.484 ± 0.005 | 0.297 | 1.01 ± 0.022 | 1.02 ± 0.035
4 | A549 LUNG | 0.922 ± 0.021 | 0.907 ± 0.029 | 0.991 ± 0.026 |  | 1.04 ± 0.014 | 1.03 ± 0.02 | 0.989 ± 0.071 | 0.99 ± 0.074 | 0.988 ± 0.026 | 0.976 ± 0.05 | 1 ± 0.057 | 1.09 ± 0.057 | 0.958 ± 0.048 | 0.67 ± 0.017 | 0.903 ± 0.013 | 0.89 ± 0.031
5 | ASKA SYNOVIAL | 0.864 ± 0.079 | 0.768 ± 0.059 | 0.867 ± 0.043 | 0.659 ± 0.04 | 0.441 ± 0.034 | 0.104 ± 0.0093 | 1.07 ± 0.14 | 0.949 ± 0.012 | 0.985 ± 0.052 | 0.881 ± 0.036 | 0.68 ± 0.049 | 0.453 ± 0.015 | 0.3413 ± 0.0023 | 0.319 ± 0.0085 | 0.858 ± 0.028 | 0.328 ± 0.056
6 | BT20 BREAST | 0.794 ± 0.14 | 0.732 ± 0.05 | 1 ± 0.16 | 1.23 ± 0.23 | 1.31 ± 0.2 | 1.21 ± 0.16 | 1.13 ± 0.073 | 1.17 ± 0.089 | 0.936 ± 0.17 | 1.04 ± 0.13 | 0.995 ± 0.098 | 0.919 ± 0.14 | 0.454 ± 0.11 | 0.211 ± 0.052 | 0.757 ± 0.081 | 0.783 ± 0.14
7 | BT549 BREAST | 0.8 ± 0.11 | 0.861 ± 0.048 | 1.11 ± 0.13 | 1.12 ± 0.16 | 1.19 ± 0.11 | 0.785 ± 0.069 | 0.976 ± 0.13 | 1.15 ± 0.075 | 1.06 ± 0.13 | 1.05 ± 0.12 | 0.939 ± 0.069 | 0.907 ± 0.13 | 0.32 ± 0.027 | 0.198 ± 0.034 | 0.854 ± 0.065 | 0.794 ± 0.13
8 | CADOES1 SOFT TISSUE |  | 0.976 ± 0.12 | 0.885 ± 0.086 | 1.03 ± 0.032 |  | 0.609 ± 0.11 | 0.948 ± 0.12 | 0.908 ± 0.12 | 0.966 ± 0.04 | 0.97 ± 0.024 | 0.819 ± 0.048 | 0.977 ± 0.023 | 0.735 ± 0.053 | 0.528 ± 0.069 | 0.892 ± 0.044 | 0.967 ± 0.083
9 | CAL51 BREAST | 0.886 ± 0.047 | 0.895 ± 0.012 |  | 1.01 ± 0.035 | 0.52 ± 0.031 | 0.202 ± 0.031 | 0.951 ± 0.068 | 1.02 ± 0.022 | 0.956 ± 0.039 | 0.977 ± 0.049 | 0.929 ± 0.063 | 0.921 ± 0.019 | 0.305 ± 0.037 | 0.139 ± 0.011 | 0.94 ± 0.011 | 0.934 ± 0.053
10 | CAL120 BREAST | 0.881 ± 0.021 | 0.882 ± 0.036 | 0.891 ± 0.023 | 0.891 ± 0.038 | 0.64 ± 0.039 | 0.386 ± 0.037 | 0.939 ± 0.036 | 0.933 ± 0.033 | 0.982 ± 0.016 | 0.973 ± 0.013 | 0.938 ± 0.035 | 0.939 ± 0.038 | 0.498 ± 0.1 | 0.356 ± 0.011 | 0.876 ± 0.047 | 
11 | CASKI CERVIX | 0.757 ± 0.041 | 0.731 ± 0.072 | 0.891 ± 0.088 | 0.717 ± 0.039 | 0.166 ± 0.0025 | 0.0627 ± 0.004 | 0.904 ± 0.037 | 0.934 ± 0.061 | 0.99 ± 0.035 | 0.939 ± 0.014 | 0.876 ± 0.051 | 0.86 ± 0.0087 | 0.303 ± 0.019 | 0.182 ± 0.0059 | 0.792 ± 0.052 | 0.763 ± 0.064
12 | CHLA90 AUTONOMIC GANGLIA | 0.885 ± 0.043 | 0.803 ± 0.062 |  | 0.776 ± 0.047 | 0.779 ± 0.015 | 0.201 ± 0.02 | 0.964 ± 0.044 | 0.995 ± 0.043 | 0.978 ± 0.069 | 0.959 ± 0.042 | 0.925 ± 0.043 | 0.925 ± 0.043 | 0.557 ± 0.05 | 0.484 ± 0.02 | 0.805 ± 0.025 | 0.248 ± 0.019
13 | CME SYNOVIAL | 0.928 ± 0.17 | 0.551 ± 0.019 |  | 0.82 ± 0.032 | 0.767 ± 0.1 | 0.0447 ± 0.0074 | 1.18 ± 0.13 | 1.09 ± 0.048 | 1.13 ± 0.081 | 1.13 ± 0.13 | 0.766 ± 0.015 | 0.364 ± 0.04 | 0.265 ± 0.0095 | 0.369 ± 0.023 |  | 0.036 ± 0.0027
14 | COLO320DM LARGE INTESTINE |  | 0.921 ± 0.045 | 0.929 ± 0.057 | 0.871 ± 0.075 | 0.324 ± 0.026 | 0.115 ± 0.011 | 1.16 ± 0.034 | 1.05 ± 0.058 | 1.15 ± 0.044 | 1.05 ± 0.093 | 1.14 ± 0.046 | 1.05 ± 0.049 | 1.04 ± 0.03 | 0.962 ± 0.042 | 0.957 ± 0.063 | 0.369 ± 0.055
15 | DU4475 BREAST | 0.742 ± 0.17 | 0.797 ± 0.12 | 0.668 ± 0.12 | 0.649 ± 0.21 | 0.428 ± 0.18 | 0.1 ± 0.029 | 0.932 ± 0.028 | 0.97 ± 0.11 | 0.848 ± 0.075 | 0.7 ± 0.089 | 0.257 ± 0.1 | 0.146 ± 0.037 | 0.0573 ± 0.011 | 0.0397 ± 0.0084 | 0.716 ± 0.14 | 0.771 ± 0.18
16 | H23 LUNG | 0.953 ± 0.023 | 0.918 ± 0.013 |  | 0.829 ± 0.014 | 0.598 ± 0.06 | 0.368 ± 0.021 | 0.988 ± 0.067 | 1.07 ± 0.053 | 1.01 ± 0.033 | 1.04 ± 0.056 | 1.11 ± 0.03 | 1.07 ± 0.04 | 0.565 ± 0.019 | 0.509 ± 0.02 |  | 0.885 ± 0.045
17 | HCC38 BREAST | 0.845 ± 0.24 | 0.893 ± 0.22 | 1.16 ± 0.1 | 1.18 ± 0.11 | 1.04 ± 0.22 | 0.76 ± 0.21 | 1.28 ± 0.31 | 1.19 ± 0.15 | 1.16 ± 0.18 | 1.17 ± 0.1 | 1.09 ± 0.054 | 1.21 ± 0.059 | 0.53 ± 0.067 | 0.316 ± 0.026 | 0.966 ± 0.15 | 
18 | HCC70 BREAST | 1.01 ± 0.029 |  |  |  | 1.15 ± 0.11 |  | 1.05 ± 0.078 | 0.995 ± 0.053 | 1.08 ± 0.044 | 1.09 ± 0.1 | 0.991 ± 0.13 | 1.09 ± 0.09 | 0.785 ± 0.077 | 0.578 ± 0.016 | 1 ± 0.096 | 0.904 ± 0.045
19 | HCC78 LUNG | 0.831 ± 0.076 | 0.925 ± 0.054 | 1.24 ± 0.33 | 1.34 ± 0.44 | 1.67 ± 0.23 | 0.633 ± 0.1 | 0.952 ± 0.064 | 0.863 ± 0.27 | 1 ± 0.082 | 0.925 ± 0.16 | 0.841 ± 0.11 | 0.649 ± 0.099 | 0.0883 ± 0.027 | 0.089 ± 0.024 | 0.95 ± 0.099 | 0.46 ± 0.089
20 | HCC202 BREAST | 0.879 ± 0.093 | 0.806 ± 0.23 | 1.26 ± 0.17 |  | 0.714 ± 0.15 | 0.639 ± 0.06 | 1.08 ± 0.35 | 1.11 ± 0.12 | 1.17 ± 0.066 | 0.994 ± 0.18 | 1.14 ± 0.18 | 1.14 ± 0.22 | 0.84 ± 0.31 | 0.724 ± 0.13 | 1.29 ± 0.32 | 0.801 ± 0.19
21 | HCC1806 BREAST | 0.677 ± 0.078 | 0.59 ± 0.41 | 1 ± 0.091 | 0.978 ± 0.11 | 0.677 ± 0.039 | 0.397 ± 0.044 | 0.883 ± 0.089 | 1.04 ± 0.14 | 1.05 ± 0.082 | 1.03 ± 0.075 | 1.14 ± 0.029 | 0.807 ± 0.067 | 0.182 ± 0.021 | 0.141 ± 0.0035 | 0.667 ± 0.45 | 0.566 ± 0.43
